In patent publication US10952999B2, “Inhibitor of cyclin-dependent kinase CDK9” (GENFLEET THERAPEUTICS (SHANGHAI) INC., priority 2017, dated 2021):

Tests used:
Assay in all cases: Cancer cell growth, Cell Titer-Glo cell viability assay, 72 hours
Assay type in all cases: cell-based
[1] = system: human lung adenocarcinoma cell H1395; conditions: NCI-H1395, H1395, 72 hours
From the text: (§1) In the examples, we used acute myelocytic leukemia (AML) OCI-AML-3, acute promyelocytic leukemia cell line NB-4, MDS-RAEB (myelodysplastic syndrome-excess blasts type) cell line SKM-1, human leukemia cell Nomo-1, acute myeloid leukemia cell line MOLM14, acute myeloid leukemia cell line MOLM13, acute myeloid leukemia cell line MV4-11, acute myeloid leukemia cell line HL-60, acute myeloid leukemia cell line OCI-AML-2, histiocytic lymphoma U-937, acute B cell leukemia cell line MEC-1, acute B cell leukemia cell line MEC-2, acute megakaryoblastic leukemia CMK, hamster lung cell CHL, hamster ovary cell CHO, human non-small cell lung cancer cell H1975, human non-small cell lung cancer cell H358, human small cell lung cancer cell H209, human lung adenocarcinoma cell H1395, human non-small cell lung cancer cell PC-9, human lung cancer cell H3122, human non-small cell lung cancer cell H2122, human non-small cell lung cancer cell H1915, human lung adenocarcinoma cell H1355, human non-small cell lung cancer cell HCC827, human breast cancer cell MDA-MB-231, human breast cancer cell MDA-MB-468, human breast cancer cell MCF-7, human breast cancer cell T47D, human breast cancer cell SK-Br-3, the above cells were purchased from ATCC.
(§2) Cell Titer-Glo® (Promega, USA) chemical self-luminescence cell viability assay kit was used to detect the number of viable cells by quantitatively measuring ATP in living cells, according to which to calculate GI50 and IC50.

[2] = system: acute myeloid leukemia cell line MV4-11; conditions: Homo sapiens; MV4-11, 72 hours
From the text: as §1, §2

[3] = system: histiocytic lymphoma U-937; conditions: Homo sapiens; U-937, 72 hours
From the text: as §1, §2

[4] = system: acute myeloid leukemia cell line HL-60; conditions: Homo sapiens; HL-60, 72 hours
From the text: as §1, §2

hamster lung cell CHL = system: hamster lung cell CHL
From the text: as §1, §2

[5] = system: human non-small cell lung cancer cell HCC827; conditions: HCC827, 72 hours
From the text: as §1, §2

[6] = system: human non-small cell lung cancer cell H1915; conditions: NCI-H1915, H1915, 72 hours
From the text: as §1, §2

[7] = system: MDS-RAEB (myelodysplastic syndrome-excess blasts type) cell line SKM-1; conditions: Homo sapiens; SKM-1, 72 hours
From the text: as §1, §2

[8] = system: human non-small cell lung cancer cell H2122; conditions: NCI-H2122, H2122, 72 hours
From the text: as §1, §2

[9] = system: acute B cell leukemia cell line MEC-2; conditions: MEC2; MEC-2, 72 hours
From the text: as §1, §2

[10] = system: acute promyelocytic leukemia cell line NB-4; conditions: NB4, 72 hours
From the text: as §1, §2

[11] = system: acute megakaryoblastic leukemia CMK
From the text: as §1, §2

[12] = system: human breast cancer cell MCF-7; conditions: MCF7, MCF-7, 72 hours
From the text: as §1, §2

[13] = system: human breast cancer cell MDA-MB-468; conditions: MDA-MB-468, 72 hours
From the text: as §1, §2

[14] = system: acute myeloid leukemia cell line MOLM13; conditions: Homo sapiens; MOLM-13, 72 hours
From the text: as §1, §2

[15] = system: acute myeloid leukemia cell line OCI-AML-2; conditions: Homo sapiens; OCI-AML2, 72 hours
From the text: as §1, §2

[16] = system: human non-small cell lung cancer cell PC-9; conditions: PC-9, 72 hours
From the text: as §1, §2

[17] = system: human breast cancer cell T47D
From the text: as §1, §2

[18] = system: human small cell lung cancer cell H209; conditions: NCI-H209, H209, 72 hours
From the text: as §1, §2

[19] = system: human breast cancer cell MDA-MB-231; conditions: MDA-MB-231, 72 hours
From the text: as §1, §2

[20] = system: human leukemia cell Nomo-1; conditions: Homo sapiens; Nomo-1, 72 hours
From the text: as §1, §2

[21] = system: acute B cell leukemia cell line MEC-1; conditions: Homo sapiens, MEC1; MEC-1, 72 hours
From the text: as §1, §2

[22] = system: acute myeloid leukemia cell line MOLM14; conditions: Homo sapiens; MOLM-14, 72 hours
From the text: as §1, §2

[23] = system: acute myelocytic leukemia (AML) OCI-AML-3; conditions: Homo sapiens, OCI-AML-3; OCI-AML3, 72 hours
From the text: as §1, §2

[24] = system: human non-small cell lung cancer cell H1975; conditions: NCI-H1975, H1975, 72 hours
From the text: as §1, §2

[25] = system: human lung adenocarcinoma cell H1355; conditions: NCI-H1355, H1355, 72 hours
From the text: as §1, §2

[26] = system: human non-small cell lung cancer cell H358; conditions: NCI-H358, H358, 72 hours
From the text: as §1, §2

[27] = system: human lung cancer cell H3122; conditions: NCI-H3122, H3122, 72 hours
From the text: as §1, §2

[28] = system: human breast cancer cell SK-Br-3; conditions: SK-Br-3, 72 hours
From the text: as §1, §2

hamster ovary cell CHO = system: hamster ovary cell CHO
From the text: as §1, §2

IC50 [1]: 120 nM
GI50 [2]: 14 nM
GI50 [3]: 17 nM
GI50 [4]: 32 nM
GI50 (hamster lung cell CHL; CHL, 72 hours): 1100 nM
IC50 [5]: 60 nM
IC50 [6]: 37 nM
GI50 [7]: 33 nM
IC50 [8]: 49 nM
GI50 [9]: 25 nM
GI50 [10]: 35 nM
GI50 [11]: 49 nM
IC50 [12]: 6 nM
IC50 [13]: 18 nM
GI50 [14]: 25 nM
GI50 [15]: 33 nM
IC50 [16]: 90 nM
IC50 [17]: 55 nM
IC50 [18]: 86 nM
IC50 [19]: 74 nM
GI50 [20]: 45 nM
GI50 [21]: 47 nM
GI50 [22]: 25 nM
GI50 [23]: 33 nM
IC50 [24]: 42 nM
IC50 [25]: 100 nM
IC50 [26]: 43 nM
IC50 [27]: 11 nM
IC50 [28]: 40 nM
SMILES: COC[C@@H](C)N[C@H]1CC[C@H](Nc2cc(-c3csc(NCC4(C#N)CCOCC4)n3)c(Cl)cn2)CC1 [Compound 1, 4-(((4-(5-chloro-2-(((1R,4r)-4-(((R)-1-methoxypropyl-2-yl)amino)cyclohexyl)amino)pyridin-4-yl)thiazol-2-yl)amino)methyl)tetrahydro-2H-pyran-4-carbonitrile]
inhibitory effect on normal cell CHL (in words) (hamster lung cell CHL; CHL cells): no inhibitory effect
inhibitory effect on normal cell CHO (in words) (hamster ovary cell CHO; CHO cells): no inhibitory effect
GI50 (hamster ovary cell CHO; CHO, 72 hours): 1600 nM
